Measured values taken from patent US11776661B2, “Determination of MAPK-AP-1 pathway activity using unique combination of target genes” (InnoSIGN B.V., priority 2017, dated 2023).

How the values were obtained:
[1] = test system: MAPK-AP-1 cellular signaling pathway; assay: MAPK-AP-1 pathway activity prediction (Bayesian network model, 24 target genes list) on GSE28878, HepG2 cell line; type: cell-based, human; conditions: HepG2, 500 nM TPA, 12 h, 24 h, 48 h, vs DMSO control vehicle
Protocol: A HepG2 cell line was treated with DMSO as control vehicle (group 1: 12 h, all 3 samples are part of the calibration data set; group 3: 24 h, 2 samples are part of the calibration data set; group 5: 48 h, 1 sample is part of the calibration data set) or 500 nM TPA (group 2: 12 h, 1 sample is part of the calibration data set; group 4: 24 h, all 3 samples are part of the calibration data set; group 6: 48 h). In the diagram, the vertical axis indicates the odds (on a log 2 scale) that the TF element is “present” resp. “absent”, which corresponds to the MAPK-AP-1 cellular signaling pathway being active resp. passive, wherein values above the horizontal axis correspond to the TF element being more likely “present”/active and values below the horizontal axis indicate that the odds that the TF element is “absent”/passive are larger than the odds that it is “present”/active.

[2] = test system: MAPK-AP-1 cellular signaling pathway; assay: MAPK-AP-1 pathway activity prediction (24 target genes list) on GSE45417, U937 (histiocytic lymphoma) cell line; type: cell-based; conditions: U937, 100 nM TPA vs 0.1% DMSO
Protocol: The U937 (histiocytic lymphoma) cell line was treated with 0.1% DMSO as control vehicle (group 1: all 3 samples are part of the calibration data set; and group 3), or 100 nM TPA (group 2: all 3 samples are part of the calibration data set; and group 4). Additionally, ZXDC1 knockdown was induced using doxycycline (groups 3 and 4). In the diagram, the vertical axis indicates the odds (on a log 2 scale) that the TF element is “present” resp. “absent”, which corresponds to the MAPK-AP-1 cellular signaling pathway being active resp. passive, wherein values above the horizontal axis correspond to the TF element being more likely “present”/active and values below the horizontal axis indicate that the odds that the TF element is “absent”/passive are larger than the odds that it is “present”/active.

[3] = test system: MAPK-AP-1 cellular signaling pathway; assay: MAPK-AP-1 pathway activity prediction (24 target genes list) on GSE66853, U937 cells; type: cell-based, human; conditions: 50 ng/ml TPA for 24 h, compared to Ethanol
Protocol: U937 cells were treated with Ethanol as control vehicle (group 1: all 3 samples are part of the calibration data set; and group 3) or 50 ng/ml TPA (group 2: 1 sample is part of the calibration data set; and group 4) for 24 h. U937 cells were either transduced with an empty vector (groups 1 and 2) or with an EVI1 expression vector (groups 3 and 4). In the diagram, the vertical axis indicates the odds (on a log 2 scale) that the TF element is “present” resp. “absent”, which corresponds to the MAPK-AP-1 cellular signaling pathway being active resp. passive, wherein values above the horizontal axis correspond to the TF element being more likely “present”/active and values below the horizontal axis indicate that the odds that the TF element is “absent”/passive are larger than the odds that it is “present”/active. […] Although it is known that the FOS and JUN promoter region contains EVI1 binding sites it seems that this effect on AP-1 activity is very small compared to the addition of 50 ng/ml TPA.

[4] = test system: MAPK-AP-1 cellular signaling pathway; assay: MAPK-AP-1 pathway activity prediction (24 target genes list) on E-MEXP-2213, K562 (erythroleukemia) cells; type: cell-based; conditions: K562, 10 nM TPA vs not treated
Protocol: K562 (erythroleukemia) cells were either not treated (group 1) or treated with 10 nM TPA (group 2). In the diagram, the vertical axis indicates the odds (on a log 2 scale) that the TF element is “present” resp. “absent”, which corresponds to the MAPK-AP-1 cellular signaling pathway being active resp. passive, wherein values above the horizontal axis correspond to the TF element being more likely “present”/active and values below the horizontal axis indicate that the odds that the TF element is “absent”/passive are larger than the odds that it is “present”/active.

[5] = test system: MAPK-AP-1 cellular signaling pathway; assay: MAPK-AP-1 pathway activity prediction (11 target gene shortlist) on GSE40117, hES-Hep cells; type: cell-based, Human; conditions: 0.11 μM TPA vs control conditions
Protocol: (§1) Human embryonic stem cell derived hepatocyte like cells (hES-Hep) were treated with 0.11 μM TPA (group 2: all 3 samples are part of the calibration data set) and compared to control conditions (group 1). HepG2 (a human liver cancer cell line) were treated with 0.0001 μM TPA (group 4: 3 samples are part of the calibration data set) and compared to control conditions (group 3: 1 sample is part of the calibration data set). In the diagram, the vertical axis indicates the odds (on a log 2 scale) that the TF element is “present” resp. “absent”, which corresponds to the MAPK-AP-1 cellular signaling pathway being active resp. passive, wherein values above the horizontal axis correspond to the TF element being more likely “present”/active and values below the horizontal axis indicate that the odds that the TF element is “absent”/passive are larger than the odds that it is “present”/active.

[6] = test system: MAPK-AP-1 cellular signaling pathway; assay: MAPK-AP-1 pathway activity prediction (11 target gene shortlist) on GSE40117, HepG2; type: cell-based, human; conditions: HepG2, 0.0001 μM TPA vs control conditions
Protocol: as §1

[7] = test system: MAPK-AP-1 cellular signaling pathway; assay: MAPK-AP-1 pathway activity prediction (11 target gene shortlist) on GSE58235, HepG2 (Human Hepatoma) cell line; type: cell-based; conditions: compared to DMSO and Ethanol
Protocol: The HepG2 (Human Hepatoma) cell line was treated with 0.5% DMSO (group 1: all 3 samples are part of the calibration data set; group 4: 1 sample is part of the calibration data set), 0.5% Ethanol (groups 2 and 5) or 500 nM TPA (group 3: all 3 samples are part of the calibration data set; and group 6) for 24 hours (groups 1 to 3) or 48 hours (groups 4 to 6). In the diagram, the vertical axis indicates the odds (on a log 2 scale) that the TF element is “present” resp. “absent”, which corresponds to the MAPK-AP-1 cellular signaling pathway being active resp. passive, wherein values above the horizontal axis correspond to the TF element being more likely “present”/active and values below the horizontal axis indicate that the odds that the TF element is “absent”/passive are larger than the odds that it is “present”/active.

[8] = test system: MAPK-AP-1 cellular signaling pathway; assay: MAPK-AP-1 pathway activity prediction (11 target gene shortlist) on E-MEXP-2573, K562 (erythroleukemia) cells; type: cell-based; conditions: 100 nM TPA for a further 48 h
Protocol: RNA was extracted from K562 (erythroleukemia) cells after 24 h (groups 1 and 3) or cells were treated with 100 nM TPA for a further 48 h (groups 2 and 4). K562 were either transfected with a control empty vector (groups 1 and 2) or a BASP1-containing vector (groups 3 and 4). In the diagram, the vertical axis indicates the odds (on a log 2 scale) that the TF element is “present” resp. “absent”, which corresponds to the MAPK-AP-1 cellular signaling pathway being active resp. passive, wherein values above the horizontal axis correspond to the TF element being more likely “present”/active and values below the horizontal axis indicate that the odds that the TF element is “absent”/passive are larger than the odds that it is “present”/active.

Measured: AP-1 activity (log2 odds that TF element is present) after exposure

CCCCCCCCCCCCCC(=O)O[C@@H]1[C@@H](C)[C@@]2(O)[C@@H](C=C(CO)C[C@]3(O)C(=O)C(C)=C[C@@H]23)[C@@H]2C(C)(C)[C@]12OC(C)=O [TPA, 12-O-Tetradecanoylphorbol-13-acetate]
large increase: [1] | [2]; ZXDC1 knockdown induced using doxycycline | [2]; without ZXDC1 knockdown | [3]; U937 transduced with EVI1 expression vector | [3]; U937 transduced with empty vector | [4] | [5] | [6] | [7]; HepG2, 500 nM TPA for 24 hours | [7]; HepG2, 500 nM TPA for 48 hours | [8]; K562 transfected with BASP1-containing vector | [8]; K562 transfected with control empty vector
